Experiments:
[1] = cited from earlier work
patients with hip OA = test: comparative clinical study of Diacerein, Chondroitin and the combination Diacerein/Chondroitin, 6 month follow-up; format: in vivo
Procedure: A comparative clinical study in patients with hip OA was carried out with a 6 month term for follow-up. The study compared the efficacy of single Diacerein administration, single chondroitin and a combination of Diacerein/Chondroitin. The study included 120 patients which were divided in 3 treatment groups: • Groups 1: received Diacerein 50 mg administration twice a day. • Group 2: received Chondroitin 600 mg administration twice a day. • Group 3 : received Diacerein 50 mg /Chondroitin 600 mg administration twice a day.
Patients fulfilled with the inclusion criteria from the American Rheumatology Academy. Inclusion criteria were: • Symptomatic disease presence, defined as daily hip pain at least during the last two months. • A functional pain Lequesne index at least of 3 points. • Radiographic criteria were a joint space between 1 and 3 mm (without exceeding 3 mm) or less than 0.5 mm qf contralateral hip.
Joint hip space was measured through a prior pelvic radiography reading center, using a graded 0.1 mm magnification crystal. Start and end of treatment was radiographically assessed comparing the affected vs contralateral hip.
Laboratory analyses were carried out at the beginning of the study and on 6 months of treatment, assessing liver and kidney performance.

[2] = in vivo; cited from earlier work
pain = details: dose from 2 to 4 gr/day; cited from earlier work
[3] = cited from earlier work; remark: listed apart in the source

CC(=O)Oc1cccc2c1C(=O)c1c(OC(C)=O)cc(C(=O)O)cc1C2=O [Diacerein]
slow action start, not significant until ([1]; after treatment): 4 weeks | effect is maintained after having cancelled the treatment ([1]; in vivo): ≥ 2 months | Patient percentage with radiographic progression (joint space loss at least of 0.5 mm) (patients with hip OA; Data from first laboratory analysis, P= 0.035): 51.6% | Patient percentage with radiographic progression (joint space loss at least of 0.5 mm) (patients with hip OA; Data upon 6 month treatment completion, P= 0.006): 46.7% | patients cancelled the treatment (because of inefficacy) (patients with hip OA; after two months of treatment (time printed for Group 1), forty patients per group, twice a day oral): 6 patients | joint space, Average ± SD (patients with hip OA; at 6 months of treatment, hip): 0.17 ± 0.24 mm/6 months | clearance half-life in plasma [2]: 5 to 7 h

CC(=O)Nc1ccc(O)cc1 [Paracetamol]
controlling pain in patients (pain): 40 % of patients

O=C(O)c1cc(O)c2c(c1)C(=O)c1cccc(O)c1C2=O [Rein, rein]
bound to plasma proteins [3]: 99%

— patent publication EP2243478A1, “PHARMACEUTICAL COMPOSITION COMBINING AN ANTIARTHRITIC AGENT AND AN INTERLEUKIN-1 INHIBITING AGENT, WHICH CAN BE USED TO CONTROL AND TREAT OSTEOARTHRITIS AND RELATED DISEASES” (World Trade Import-Export, WTIE A.G., priority 2007, dated 2009)
